Where a name gives a salt, the structure may show the parent alone.
Columns and labels:
[1] = test system: NCI-H292 lung cancer cells; experiment: FDA drug screening, complete media vs cholesterol-free media without statin (TABLE 1); format: cell-based, human
[2] = test system: NCI-H292 lung cancer cells; experiment: FDA drug screening, complete media vs cholesterol-free media with simvastatin (TABLE 2); format: cell-based, human; settings: for Cholesterol-free media + simvastatin (0.04 μM) / Complete Media: NCI-H292 cells
[3] = NCI-H292 cells, cholesterol-free media without statin, FDA drug library screen
[4] = NCI-H292 cells, complete media, FDA drug library screen
[5] = FDA drug library screen, cholesterol-free media with simvastatin 0.04 μM
[6] = FDA drug library screen, complete media
[7] = complete media vs cholesterol-free media + simvastatin (0.04 μM), >0 enhanced anti-cancer activity, about 0 neutral, <0 antagonist
[8] = Complete minus Cholesterol-free, greater than 0 enhanced anti-cancer activity, about 0 neutral, below 0 antagonists
[9] = NCI-H292 cells in cholesterol-free media without statin
[10] = NCI-H292 cells in complete media
[11] = cholesterol-free media with simvastatin 0.04 μM, cell growth value in FDA drug screen
[12] = complete media, cell growth value in FDA drug screen
[13] = complete media minus cholesterol-free media + simvastatin, >0 enhanced anti-cancer activity, about 0 neutral, <0 antagonist
[14] = NCI-H292 cells, cholesterol-free media without statin
[15] = complete vs cholesterol-free media, greater than 0 enhanced anti-cancer activity, about 0 neutral, below 0 antagonists
[16] = FDA library drug in cholesterol-free media with simvastatin 0.04 μM
[17] = FDA library drug in complete media
[18] = cholesterol-free media with simvastatin 0.04 μM, FDA drug library screen (TABLE 2)
[19] = complete media, FDA drug library screen (TABLE 2)
[20] = Complete minus Cholesterol-free, >0 enhanced anti-cancer activity, about 0 neutral, <0 antagonist
[21] = drug in cholesterol-free media with simvastatin 0.04 μM
[22] = Complete minus Cholesterol-free, […]
[23] = complete media vs cholesterol-free media + simvastatin (0.04 μM), […]

## CC(=O)Oc1cc2c(s1)CCN(C(C(=O)C1CC1)c1ccccc1F)C2 (stereo not drawn) [Prasugrel]
[1]; [3]
  Cholesterol-free: 1.483
[1]; [4]
  Complete: 1.769
[1]; complete vs cholesterol-free media, >0 enhanced anti-cancer activity, about 0 neutral, <0 antagonist
  Difference: 0.29
[2]; [5]
  Cholesterol-free media + simvastatin (0.04 μM): 1.012
[2]; [6]
  Complete Media: 0.9091
[2]; [7]
  Difference: −0.10

## CC[C@H](C)C(=O)O[C@H]1C[C@H](O)C=C2C=C[C@H](C)[C@H](CC[C@@H](O)C[C@@H](O)CC(=O)[O-])[C@H]21.[Na+] [Pravastatin (sodium)]
[1]; [8]
  Difference: −0.48
[1]; [9]
  Cholesterol-free: 1.713
[1]; [10]
  Complete: 1.238
[2]; [11]
  Cholesterol-free media + simvastatin (0.04 μM): 1.193
[2]; [12]
  Complete Media: 1.235
[2]; [13]
  Difference: 0.04

## O=C(C1CCCCC1)N1CC(=O)N2CCc3ccccc3C2C1 (stereo not drawn) [Praziquantel]
[1]; [14]
  Cholesterol-free: 1.485
[1]; NCI-H292 cells, complete media
  Complete: 1.043
[1]; [15]
  Difference: −0.44
[2]; [16]
  Cholesterol-free media + simvastatin (0.04 μM): 1.644
[2]; [17]
  Complete Media: 1.108
[2]; [7]
  Difference: −0.54

## COc1cc2nc(N3CCN(C(=O)c4ccco4)CC3)nc(N)c2cc1OC [Prazosin (hydrochloride)]
[1]; [8]
  Difference: −0.52
[1]; [9]
  Cholesterol-free: 1.627
[1]; [10]
  Complete: 1.105
[2]; [5]
  Cholesterol-free media + simvastatin (0.04 μM): 1.23
[2]; [6]
  Complete Media: 1.079
[2]; [7]
  Difference: −0.15

## CC(C)(C)CC(=O)OCC(=O)[C@@]1(O)CC[C@H]2[C@@H]3CCC4=CC(=O)C=C[C@]4(C)[C@H]3[C@@H](O)C[C@@]21C [Prednisolone Tebutate]
[1]; [14]
  Cholesterol-free: 1.01
[1]; NCI-H292 cells, complete media
  Complete: 0.6634
[1]; [15]
  Difference: −0.35
[2]; [18]
  Cholesterol-free media + simvastatin (0.04 μM): 0.7311
[2]; [19]
  Complete Media: 0.7398
[2]; complete media minus cholesterol-free media + simvastatin (0.04 μM), >0 enhanced anti-cancer activity, about 0 neutral, <0 antagonist
  Difference: 0.01

## CC(=O)OCC(=O)[C@@]1(O)CC[C@H]2[C@@H]3CCC4=CC(=O)C=C[C@]4(C)[C@H]3[C@@H](O)C[C@@]21C [Prednisolone acetate]
[1]; [14]
  Cholesterol-free: 0.9263
[1]; NCI-H292 cells, complete media
  Complete: 0.6003
[1]; [15]
  Difference: −0.33
[2]; [5]
  Cholesterol-free media + simvastatin (0.04 μM): 0.7463
[2]; [6]
  Complete Media: 0.6367
[2]; [7]
  Difference: −0.11

## C[C@]12C=CC(=O)C=C1CC[C@@H]1[C@@H]2[C@@H](O)C[C@@]2(C)[C@H]1CC[C@]2(O)C(=O)CO [Prednisolone]
[1]; [20]
  Difference: −0.02
[1]; [3]
  Cholesterol-free: 0.4941
[1]; [4]
  Complete: 0.4768
[2]; [21]
  Cholesterol-free media + simvastatin (0.04 μM): 0.6412
[2]; drug in complete media
  Complete Media: 0.4437
[2]; [7]
  Difference: −0.20

## CC(=O)OCC(=O)[C@@]1(O)CC[C@H]2[C@@H]3CCC4=CC(=O)C=C[C@]4(C)[C@H]3C(=O)C[C@@]21C [Prednisone acetate]
[1]; [22]
  Difference: −0.20
[1]; [14]
  Cholesterol-free: 0.9782
[1]; NCI-H292 cells, complete media
  Complete: 0.7806
[2]; [16]
  Cholesterol-free media + simvastatin (0.04 μM): 0.9605
[2]; [17]
  Complete Media: 0.6606
[2]; [23]
  Difference: −0.30

## C[C@]12C=CC(=O)C=C1CC[C@@H]1[C@@H]2C(=O)C[C@@]2(C)[C@H]1CC[C@]2(O)C(=O)CO [Prednisone]
[1]; [8]
  Difference: −0.52
[1]; [9]
  Cholesterol-free: 1.522
[1]; [10]
  Complete: 1.002
[2]; [11]
  Cholesterol-free media + simvastatin (0.04 μM): 0.9598
[2]; [12]
  Complete Media: 1.028
[2]; [13]
  Difference: 0.07

## CC(=O)C1CCC2C3CC=C4CC(OS(=O)(=O)O)CCC4(C)C3CCC12C (stereo not drawn) [Pregnenolone monosulfate]
[1]; [22]
  Difference: −0.11
[1]; NCI-H292 cells, FDA drug library screen, cholesterol-free media without statin
  Cholesterol-free: 1.032
[1]; NCI-H292 cells, FDA drug library screen, complete media
  Complete: 0.9202
[2]; [18]
  Cholesterol-free media + simvastatin (0.04 μM): 1.305
[2]; [19]
  Complete Media: 1.254
[2]; complete media minus cholesterol-free media + simvastatin (0.04 μM), […]
  Difference: −0.05

## CC(=O)[C@H]1CC[C@H]2[C@@H]3CC=C4C[C@@H](O)CC[C@]4(C)[C@H]3CC[C@]12C [Pregnenolone]
[1]; [22]
  Difference: −0.56
[1]; [9]
  Cholesterol-free: 1.529
[1]; [10]
  Complete: 0.9655
[2]; [16]
  Cholesterol-free media + simvastatin (0.04 μM): 1.424
[2]; [17]
  Complete Media: 0.9118
[2]; [23]
  Difference: −0.51

## O=[N+]([O-])c1cn2c(n1)OC[C@@H](OCc1ccc(OC(F)(F)F)cc1)C2 [Pretomanid]
[1]; [20]
  Difference: −0.21
[1]; [14]
  Cholesterol-free: 1.474
[1]; NCI-H292 cells, complete media
  Complete: 1.26
[2]; [16]
  Cholesterol-free media + simvastatin (0.04 μM): 1.251
[2]; [17]
  Complete Media: 0.9046
[2]; [7]
  Difference: −0.35

## CCCNC(C)C(=O)Nc1ccccc1C (stereo not drawn) [Prilocaine]
[1]; [8]
  Difference: −0.49
[1]; [9]
  Cholesterol-free: 1.366
[1]; [10]
  Complete: 0.8796
[2]; [21]
  Cholesterol-free media + simvastatin (0.04 μM): 1.231
[2]; drug in complete media
  Complete Media: 0.9727
[2]; [7]
  Difference: −0.26

## CCC1(c2ccccc2)C(=O)NCNC1=O [Primidone]
[1]; [8]
  Difference: −0.48
[1]; [9]
  Cholesterol-free: 1.462
[1]; [10]
  Complete: 0.9788
[2]; [5]
  Cholesterol-free media + simvastatin (0.04 μM): 0.9863
[2]; [6]
  Complete Media: 0.8914
[2]; [7]
  Difference: −0.09

From US20250144067A1, “PERSONALIZED STARVATION THERAPY FOR CANCER” (Faeth Therapeutics, Inc., priority 2021, published 2025)
